Twelve compounds from PubChem BioAssay (NCI) can be followed below.

Holding throughout (test): NCI-60 cell line screen, 48 h
The test system of test [1] is MDA-MB-231 breast.
Test [2] concerns MOLT-4 leukemia.
Test [3] has as its system CCRF-CEM leukemia.
The test system of test [4] is OVCAR-4 ovarian.
Test [5] relates to UACC-257 melanoma.
Test [6] has as its system HOP-92 NSCLC.
The subject of test [7] is A549 NSCLC.
Test [8] deals with KM12 colon.
In test [9] the test system is U251 CNS.

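Grown in 96-well plates, cells were treated for 48 hours with each compound at five concentrations. Insufficient inhibition: endpoint recorded as highest concentration tested. TGI: concentration producing complete growth inhibition.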 Some results are limits rather than exact numbers.

With `CC(C)(C)c1cc(C(C)(C)C)c(SC2OC(CO)C(O)C(O)C2O)c(O)c1O` (stereo not drawn), the TGI in test [1] was 50.9 µM; in test [2] it was above 100 µM; in [3] it was above 34.7 µM; in [4], above 61.9 µM; in test [5] it was above 72.6 µM; in test [6] it was above 42.6 µM. The TGI came out at 21.3 µM in [7], 20.8 µM in test [8] and 20.3 µM in test [9].

On to `O=C(CCC(NC(=O)OCc1ccccc1)C(=O)OCc1ccccc1)Nc1cccc(OCc2ccccc2)c1` (stereo not drawn), for which the TGI was 56.5 µM in test [1]; above 100 µM in test [2]; 99.4 µM in test [3]; above 100 µM in [4]; 55 µM in [5]; 75 µM in test [6]. Moreover, the TGI in test [7], in test [8] and in test [9] was above 100 µM each time.

`Oc1ccc(Nc2nc(Cl)c3[nH]cnc3n2)cc1`: the TGI in [1] was above 100 µM; in test [2], above 100 µM; in [3], above 100 µM; in [4] it was above 100 µM; in test [5], above 100 µM; in [6], 38.2 µM. For the same compound, the TGI in test [7], in test [8] and in test [9] was above 100 µM each time.

Regarding `C#CC(O)/C=C/C(O)CCCC(O)CC#CC(O)C#CCCCCC(O)/C=C/CCCC(=O)CCCCCCCCCCCCCCCC(O)C(O)C#CC(=O)O` (stereo not drawn), the TGI in test [1], in test [2], in [3], in test [4], in test [5] and in [6] was above 25 µM in each case. The TGI in [7], in test [8] and in test [9] was above 25 µM each time.

In the case of `COc1ccc(-c2csc3c2[N+]2(C)C=CC=C2C3N2CCCC2)cc1` (stereo not drawn), the TGI in test [1] was above 100 µM; in [2], above 100 µM; in test [3] it was above 100 µM; in test [4], above 100 µM; in test [5], 93.5 µM; in test [6], 75.9 µM. The TGI was above 100 µM in [7], 34.9 µM in test [8] and 23.3 µM in [9].

With `CCOC(=O)/C=C(/C(=O)OCC)n1cc(C)c(=O)n(Cc2cn(CCCCOC(C)=O)nn2)c1=O`, the TGI in test [1] was 65.4 µM; in test [2], 24.9 µM; in test [3] it was 2.31 µM; in test [4], 39.5 µM; in test [5], 36.8 µM; in test [6], 3.11 µM. For the same compound, the results for the TGI in [7], in test [8] and in test [9] were 56.1 µM, 29.5 µM and 45.3 µM, respectively.

For the compound `C#CCn1c(I)cc2c(c1=O)COC(=O)[C@]2(O)CC`, the TGI in [1], in test [2], in [3], in [4], in test [5] and in [6] was above 100 µM in each case. Moreover, the TGI in test [7], in test [8] and in test [9] was above 100 µM each time.

As for `C=C1c2nc3ccccc3n2C=C(c2ccccc2)N1c1ccc(C)cc1`, the TGI in test [1], in [2], in test [3], in test [4], in test [5] and in test [6] was above 100 µM each time. The TGI in [7] was above 100 µM; in [8], 56.1 µM; in [9] it was above 100 µM.

For `COc1ccc(C2C3=C(COC3=O)Oc3cc4c(cc32)OCO4)cc1OC` (stereo not drawn), the TGI in [1] was above 100 µM; in test [2] it was above 29.9 µM; in [3], above 32.4 µM; in test [4], above 100 µM; in test [5], above 100 µM; in test [6], above 100 µM. Moreover, the TGI is above 100 µM in test [7], above 71.7 µM in [8] and above 100 µM in test [9].

For the compound `CCOP(=O)(OCC)C(c1ccccc1)N(C(=O)NC(F)(F)F)c1ccc(C)cc1` (stereo not drawn), the TGI in test [1], in [2], in test [3], in test [4], in [5] and in test [6] was above 100 µM in each case. For the same compound, the TGI in test [7], in test [8] and in test [9] was above 100 µM throughout.

For `COC(=O)c1ccc(C)cc1C1CN=NC12Cc1cccc(C)c1C2=O` (stereo not drawn), the TGI in test [1] is above 100 µM; in test [2], 43.1 µM; in test [3], 92.8 µM; in test [4], above 100 µM; in test [5], 66 µM; in test [6], above 100 µM. The values for the TGI in [7], in [8] and in test [9] were above 100 µM, 72.5 µM and above 100 µM, respectively.

Turning to `COC1(C)CCC(OS(C)(=O)=O)CO1` (stereo not drawn), the TGI in test [1], in test [2], in test [3], in [4], in test [5] and in [6] was above 100 µM throughout. The TGI in test [7], in [8] and in test [9] was above 100 µM throughout.
